From patent publication US20090275085A1, “Enzyme for Obtaining Prebiotic Oligosaccharides” (CONSEJO SUPERIOR DE INVESTIGACIONES CIENTIFICAS, priority 2004, published 2009)

Legend:
[1] = test system: purified X. dendrorhous enzyme (F-3); experiment: Glycosyltransferase activity: incubating maltose (240 g/l) with the purified X. dendrorhous enzyme (F-3), HPLC analysis; assay type: biochemical, Xanthophyllomyces dendrorhous; conditions: for composition of the system: after 288 hours, maltose 240 g/l, 0.7 μg α-glucosidase, pH 5.4, 40° C., 200 rpm; for Composition of the reaction mixture: 240 g maltose/l, 0.2 M sodium acetate pH 5.4, 40° C., 150 rpm
Procedure: 0.7 μg of α-glucosidase from the pure solution of α-glucosidase corresponding to fraction 3 of TABLE 2 were added. […] Aliquots were extracted at different times and incubated for 5 minutes at 80° C. to inactivate the enzyme. They were diluted to 1:4 (v/v) with water, centrifuged for 5 minutes at 6000 rpm in an Eppendorf tube with a 0.45 μam filter and analyzed by HPLC liquid chromatography.

[2] = test system: X. dendrorhous α-glucosidase, enzyme purified to homogeneity (F-3); experiment: α-glucosidase (hydrolytic) activity of the X. dendrorhous F-3 fraction on different substrates; assay type: biochemical, Xanthophyllomyces dendrorhous; conditions: for hydrolytic activity observed on substrate: enzyme purified to homogeneity (F-3); for Specific activity: F-3 fraction, purified protein, 1% concentration of substrate
Procedure: (§1) The cell-free fraction was obtained by centrifugation (F-0) and α-glucosidase activity in this fraction was tested, assessing the release of glucose on different substrates. A […] test and standard methodology were used. The released glucose was quantified using the glucose oxidase-peroxidase coupled reaction: 0.4 ml of the solution to be assessed was mixed with 0.1 ml of A:B solution (20:1) (A: 0.85 U/ml glucose oxidase, 0.40 U/ml peroxidase in sodium phosphate buffer pH 5; B: 0.6% O-dianisidine). It was incubated for 30 minutes at 37° C. and spectrophotometrically quantified at 450 nm. A standard glucose curve (1 to 100 μg/ml) was used. The α-glucosidase activity unit is defined as the amount of enzyme required to release 20 μg/ml of glucose under the described conditions.
The hydrolytic activity of the enzyme purified to homogeneity (F-3) following the described process was tested on different substrates.

[3] = test system: X. dendrorhous extracellular fraction α-glucosidase; experiment: α-glucosidase activity of the X. dendrorhous extracellular (cell-free, F-0) fraction on different glucose polymers, glucose release by glucose oxidase-peroxidase; assay type: biochemical, Xanthophyllomyces dendrorhous; conditions: for α-glucosidase activity detected on substrate: cell-free fraction (F-0); for Specific activity: X. dendrorhous extracellular fraction (F-0), release of glucose
Procedure: The production of α-glucosidase activity was analyzed in X. dendrorhous cultures grown in minimal medium for yeasts: 0.7% YNB (Yeast Nitrogen Base w/o Amino acids, DIFCO) (w/v), 2% carbon source. The cultures were carried out in glass flasks incubated at 24° C. and with constant stirring at 160 rpm.
as §1

[4] = target: X. dendrorhous α-glucosidase (purified enzyme) (Phaffia rhodozyma, UniProt A0A0U2M4R6); experiment: Kinetic constants of X. dendrorhous α-glucosidase glycosylhydrolase activity; assay type: biochemical, Xanthophyllomyces dendrorhous; conditions: 30 minutes, 100 ng of enzyme; starch supplied by Avebe, 8100 Da
Sequence of X. dendrorhous α-glucosidase (purified enzyme) (A0A0U2M4R6 entry or part of it): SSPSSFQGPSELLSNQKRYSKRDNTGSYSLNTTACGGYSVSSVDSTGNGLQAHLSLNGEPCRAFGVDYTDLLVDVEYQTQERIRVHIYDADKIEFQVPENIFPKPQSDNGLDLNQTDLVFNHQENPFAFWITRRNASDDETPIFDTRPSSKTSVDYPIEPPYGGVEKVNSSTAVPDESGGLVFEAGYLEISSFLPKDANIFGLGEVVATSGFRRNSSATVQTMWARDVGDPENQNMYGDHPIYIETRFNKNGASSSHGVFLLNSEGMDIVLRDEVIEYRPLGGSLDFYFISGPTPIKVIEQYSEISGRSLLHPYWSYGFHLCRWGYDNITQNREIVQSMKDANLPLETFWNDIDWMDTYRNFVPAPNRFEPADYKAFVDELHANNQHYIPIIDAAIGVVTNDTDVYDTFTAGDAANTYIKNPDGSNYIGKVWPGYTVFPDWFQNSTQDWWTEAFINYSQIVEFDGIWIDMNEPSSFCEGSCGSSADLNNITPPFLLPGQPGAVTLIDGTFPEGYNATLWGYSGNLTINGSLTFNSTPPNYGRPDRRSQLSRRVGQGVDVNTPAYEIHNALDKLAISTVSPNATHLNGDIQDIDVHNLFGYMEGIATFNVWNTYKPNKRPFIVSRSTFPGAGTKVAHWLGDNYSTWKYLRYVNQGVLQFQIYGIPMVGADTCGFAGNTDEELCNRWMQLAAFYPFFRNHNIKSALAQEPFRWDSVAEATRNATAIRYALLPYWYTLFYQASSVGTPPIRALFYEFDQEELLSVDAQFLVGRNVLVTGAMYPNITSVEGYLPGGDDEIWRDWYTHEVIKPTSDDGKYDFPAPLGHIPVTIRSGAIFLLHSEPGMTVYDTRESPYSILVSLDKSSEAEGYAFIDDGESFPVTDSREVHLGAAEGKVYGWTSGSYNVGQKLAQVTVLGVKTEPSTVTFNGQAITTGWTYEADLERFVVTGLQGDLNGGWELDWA
Procedure: The tests were carried out in 30 minutes and with 100 ng of enzyme for each reaction. The molecular weight of the starch, supplied by Avebe, is 8100 Da.

X. dendrorhous MYA-131 = experiment: Degradation of starch in the medium of an X. dendrorhous culture, quantified with Lugol's iodine; assay type: cell-based, Xanthophyllomyces dendrorhous
Procedure: X. dendrorhous MYA-131 grown in 100 ml of minimal medium with starch (MMS): 0.7% YNB (Yeast Nitrogen Base w/o Amino acids, DiFCO) (w/v), 2% starch (w/v), DIFCO) was cultured to produce α-glucosidase, and the culture continued for 150 hours. Cell growth was carried out and assessed as in the previous example. The stationary phase was reached after 75 hours of growth, at 3.4 ODU660. The cell-free fraction was obtained every 5-7 hours as in EXAMPLE 1.
To that end, 0.05 ml of the cell-free fraction was mixed with 0.05 ml of 50 mM sodium phosphate buffer, pH 5.5 0.1 ml of Lugol's iodine and 2.5 ml of water were added to 0.025 ml of this mixture. The polysaccharide was spectrophotometrically quantified at 595 nm using a standard starch curve (1-10 mg/ml). The 100% starch value was that assessed in the initial culture medium which was used to carry out the inoculum. By using this methodology, a decrease of the starch in the extracellular medium for the first 30 hours of culture was not observed. 10, 20, 40 and 60% reductions of the polysaccharide concentration were obtained at 50, 60, 70 and 80 hours of culture, respectively. The last value, 60%, remained constant during prolonged growths of up to 300 hours.

Row | Compound | composition of the system [1] [g/L] | Composition of the reaction mixture ([1]; reaction time 27 h) [grams/liter] | Composition of the reaction mixture ([1]; reaction time 117 h) [grams/liter] | Composition of the reaction mixture ([1]; reaction time 143 h) [grams/liter] | Composition of the reaction mixture ([1]; reaction time 216 h) [grams/liter] | Composition of the reaction mixture ([1]; reaction time 288 h) [grams/liter] | hydrolytic activity observed on substrate [2] | Vmax [4] [μg glucose min^−1] | Specific activity [2] [U/μg] | Specific activity [3] [U/μg] | further results
1 | OC[C@H]1O[C@H](OC[C@H]2O[C@H](O[C@H]3[C@H](O)[C@@H](O)[C@@H](O[C@H]4[C@H](O)[C@@H](O)[C@@H](O)O[C@@H]4CO)O[C@@H]3CO)[C@H](O)[C@@H](O)[C@@H]2O)[C@H](O)[C@@H](O)[C@@H]1O [compound 7, α-D-Glu-(1→6)-α-D-Glu-(1→4)-α-D-Glu-(1→4)-α-D-Glu] | 17.6 | 0 | 8.8 | 10.1 | 14.5 | 17.6 |  |  |  |  | 
2 | OC[C@H]1O[C@H](OC[C@H]2OC(O)[C@H](O)[C@@H](O)[C@@H]2O)[C@H](O)[C@@H](O)[C@@H]1O (stereo partly shown) [isomaltose] | 14.4 | 0 | 12.7 | 12.4 | 13.1 | 14.4 | No activity |  |  |  | α-glucosidase activity detected on substrate [3]: not detected
3 | OC[C@H]1O[C@H](OC[C@H]2O[C@H](OC[C@H]3OC(O)[C@H](O)[C@@H](O)[C@@H]3O)[C@H](O)[C@@H](O)[C@@H]2O)[C@H](O)[C@@H](O)[C@@H]1O (stereo partly shown) [isomaltotriose] |  |  |  |  |  |  | No activity |  |  |  | α-glucosidase activity detected on substrate [3]: not detected
4 | OC[C@H]1O[C@H](O[C@H]2[C@H](O)[C@@H](O)[C@@H](O[C@H]3[C@H](O)[C@@H](O)[C@@H](O[C@H]4[C@H](O)[C@@H](O)[C@@H](O[C@H]5[C@H](O)[C@@H](O)[C@@H](O[C@H]6[C@H](O)[C@@H](O)[C@@H](O[C@H]7[C@H](O)[C@@H](O)C(O)O[C@@H]7CO)O[C@@H]6CO)O[C@@H]5CO)O[C@@H]4CO)O[C@@H]3CO)O[C@@H]2CO)[C@H](O)[C@@H](O)[C@@H]1O (stereo partly shown) [maltoheptose] |  |  |  |  |  |  |  | 15 | 997 | 24 | 
5 | OC[C@H]1O[C@H](O[C@H]2[C@H](O)[C@@H](O)[C@@H](O[C@H]3[C@H](O)[C@@H](O)[C@@H](O[C@H]4[C@H](O)[C@@H](O)C(O)O[C@@H]4CO)O[C@@H]3CO)O[C@@H]2CO)[C@H](O)[C@@H](O)[C@@H]1O (stereo partly shown) [maltotetraose] | 15.4 | 0 | 11.0 | 12.4 | 15.1 | 15.4 |  |  |  |  | 
6 | OC[C@H]1O[C@H](O[C@H]2[C@H](O)[C@@H](O)[C@@H](O[C@H]3[C@H](O)[C@@H](O)C(O)O[C@@H]3CO)O[C@@H]2CO)[C@H](O)[C@@H](O)[C@@H]1O (stereo partly shown) [maltotriose] | 35.9 | 26.3 | 42.6 | 42.8 | 39.3 | 35.9 |  | 12 | 647 | 18 | 
7 | OC[C@H]1O[C@H](OC[C@H]2O[C@H](O[C@H]3[C@H](O)[C@@H](O)C(O)O[C@@H]3CO)[C@H](O)[C@@H](O)[C@@H]2O)[C@H](O)[C@@H](O)[C@@H]1O (stereo partly shown) [panose] | 21.2 | 5.7 | 14.7 | 16.1 | 18.9 | 21.2 |  |  |  |  | 
8 | dextran |  |  |  |  |  |  | No activity |  |  |  | α-glucosidase activity detected on substrate [3]: not detected
9 | glycogen |  |  |  |  |  |  |  |  | 197 |  | 
10 | maltodextrin |  |  |  |  |  |  |  |  | 747 | 21 | 
11 | maltose | 69.2 | 183.4 | 103.0 | 94.4 | 78.1 | 69.2 |  | 23 | 1172 | 30 | 
12 | pullulan |  |  |  |  |  |  | No activity |  |  |  | 
13 | starch |  |  |  |  |  |  |  | 4.29 |  | 23 | Kcat [4]: 85.8 min⁻¹; Km [4]: 880 µM; reduction of the polysaccharide concentration (X. dendrorhous MYA-131; 50 hours of culture): 10%; reduction of the polysaccharide concentration (X. dendrorhous MYA-131; 60 hours of culture): 20%; reduction of the polysaccharide concentration (X. dendrorhous MYA-131; 70 hours of culture): 40%; reduction of the polysaccharide concentration (X. dendrorhous MYA-131; 80 hours of culture, remained constant up to 300 hours): 60%; decrease of the starch in the extracellular medium (X. dendrorhous MYA-131; first 30 hours of culture): not observed
